According to patent publication US10898465B2, “Utility of (+) epicatechin and their analogs” (Epirium Bio Inc., priority 2016, dated 2021):
pEC50: −log10 of the molar value. Like-named read-outs stand apart in the source and are kept apart here.

How the values were obtained:
[1] = Oral pharmacokinetic study in mice, plasma LC-MS/MS; assay type: in vivo; conditions: 10 mpk, female Balb C mice
Protocol: Female Balb C mice 4 per group after overnight fasting were dosed orally (via gavage) with compound 1 in 5% NMP in normal saline (10 ml/kg). Blood was collected by serial bleeding at 0.16 hr, 0.5 hr, 1 hr, 2 hr, 4 hr, 6 hr, 8 hr in heparinized tubes. Blood samples were centrifuged at 10,000 rpm for 5 min. at 4° C. to obtain the plasma, which were aspirated into separate labeled tubes and stored at −80° C. 400 ng/ml of standard in acetonitrile was used as the drug extraction solvent for extracting drug from plasma. Extraction solvent was added to plasma was vortexed and shaken on shaker for 10 minutes, centrifuged at 10,000 rpm for 10 minutes at 4° C. Supernatant was kept for analysis.
Acetonitrile and plasma calibration curves were generated and percentage of drug recovery from plasma determined. Quantitative analysis was done by liquid chromatography tandem mass spectrometer (API3200 LC-MS/MS). Cmax, Tmax, AUC and t1/2 were calculated using Graph Pad PRISM version 5.04 and the results were depicted in Table 3.

[2] = test system: Electron Transport Chain Complex IV; test: increase of the expression of Electron Transport Chain IV (ETC IV); assay type: cell-based; conditions: for pEC50: increase of expression of ETC IV, read-out: EC50 on mitochondrial ETC complexes: Electron Transport Chain Complex IV
Text: The present invention discloses a remarkable range of biological activity across the two enantiomers of epicatechin, something heretofore not described for flavonoids as a class. The enantiomer of (−)-epicatechin is (+)-epicatechin. […]

[3] = Effect on triglyceride level in animals on High Fat Diet; assay type: in vivo, mice; conditions: 15 days
Protocol: Animals were placed on High Fat Diet (HFD) until they gain more than 20% of Body weight compared with animals on standard chow and reached glycemia levels ≥200 mg/dL (usually 4-6 weeks). Animals were randomly assigned to Control (obese group) receiving vehicle only (by gavage): n=12; (+)-Epicatechin—orally by gavage: n=10: (−)-Epicatechin—orally by gavage: n=10.
All animals were treated for 15 days and continued under HFD. The results are presented at FIG. 3.

AMP kinase = test: cell-based fluorescent ELISA of AMP kinase phosphorylation status in cultured cells; conditions: AMP kinase phosphorylation (pAMPK) in cultured cells
Protocol: The compounds of the present invention were tested for their activity on AMP kinase. The activity on AMP kinase was evaluated by quantitative fluorescent immunoenzymatic assay of AMP kinase phosphorylation status in cultured cells. The 5-AMP-activated protein kinase (AMP kinase) is a key sensor of intracellular energy balance. AMP kinase is activated in response to an increase in the AMP/ATP ratio which can be caused by a number of factors such as muscle contraction, starvation, or hypoxia. AMP kinase is a heterotrimeric protein complex comprising of (63 kDa),—(38 kDa) and—•(38 kDa) subunits. For each subunit, isoforms have been identified (1, 2, 1, 2, 1, 2, 3) which theoretically allow the formation of 12 different proteins. The -subunit contains a serine/threonine kinase domain and the regulatory subunits contain binding sites for AMP and ATP (-subunit) and for glycogen (-subunit). AMP kinase is activated by phosphorylation on Thr-172 within the catalytic domain. AMP binding results in a 2 to 5-fold increase in AMP kinase activity compared to the basal level. […]
BioAssay Systems' cell-based ELISA measure phosphorylated AMP kinase in whole cells and normalizes the signal to the total protein content. […] AMP kinase phosphorylation (pAMPK) is measured using a fluorescent ELISA followed by total protein measurement in each well.

| Compound | AUC [1] | Elimination t½ [1] | fold more potent than (−)-epicatechin on increase of the expression of ETC IV ([2]; (+)-epicatechin versus (−)-epicatechin) | pEC50 [2] | improvement over (−)-epicatechin in dose giving the same triglyceride reduction ([3]; 0.003 vs 0.1 mg/Kg/day, oral) | reduction in triglyceride levels ([3]; (+)-epicatechin 0.003 mg/Kg/day vs (−)-epicatechin 0.1 mg/Kg/day, orally by gavage, FIG. 3 triglycerides content of livers) | AUC ([1]; mouse, 10 mg/kg, read-out: AUC) | half-life ([1]; mouse, 10 mg/kg, read-out: Elimination t½ (converted)) | concentration at which AMPK activity is exhibited (AMP kinase) |
| --- | --- | --- | --- | --- | --- | --- | --- | --- | --- |
| Oc1cc(O)c2c(c1)O[C@@H](c1ccc(O)c(O)c1)[C@@H](O)C2 [(+)-Epicatechin] | 0.683 µM·h | 2.13 h | approximately 400 fold | 7.00 | > 30 fold | shows the same reduction in triglyceride levels as (−)-epicatechin |  |  |  |
| CCCCCCCC(=O)Oc1cc(O)cc2c1C[C@H](O)[C@H](c1ccc(O)c(O)c1)O2 [Compound 1001, (2S,3S)-2-(3,4-dihydroxyphenyl)-3,7-dihydroxychroman-5-yl octanoate] |  |  |  |  |  |  | 2.8 µM·h | 4.5 h | 1 nM |
| Oc1cc(O)c2c(c1)O[C@H](c1ccc(O)c(O)c1)[C@H](O)C2 [(−)-Epicatechin, reference compound] |  |  |  | 4.40 |  |  |  |  |  |
